Results: ChEMBL document CHEMBL4680338, “Sinomenine inhibits hypoxia induced breast cancer side population cells metastasis by PI3K/Akt/mTOR pathway” (Bioorg Med Chem, 2021)
Active and inactive are the calls of the source.

Columns and labels:
[1] = test system: MDA-MB-231; assay: Cytotoxicity against human MDA-MB-231 cells assessed as reduction in cell viability at 1 to 4 mM measured after 24 hrs under normoxia condition by CCK-8 assay; assay type: functional, cell-based; conditions: dose 1-4 mM
[2] = test system: MCF7; assay: Cytotoxicity against human MCF7 cells assessed as reduction in cell viability at 1 to 4 mM measured after 24 hrs under normoxia condition by CCK-8 assay; assay type: functional, cell-based; conditions: dose 1-4 mM
[3] = test system: MDA-MB-231; assay: Cytotoxicity against human MDA-MB-231 cells assessed as reduction in cell viability at 0.25 to 1 mM measured after 24 hrs under hypoxia condition by CCK-8 assay; assay type: functional, cell-based; conditions: dose 0.25-1 mM
[4] = test system: MCF7; assay: Cytotoxicity against human MCF7 cells assessed as reduction in cell viability at 0.25 to 1 mM measured after 24 hrs under hypoxia condition by CCK-8 assay; assay type: functional, cell-based; conditions: dose 0.25-1 mM
[5] = test system: MDA-MB-231; assay: Cytotoxicity against human MDA-MB-231 side population cells assessed as reduction in cell viability at 0.25 to 1 mM measured after 24 hrs under hypoxia condition by CCK-8 assay; assay type: functional, cell-based; conditions: dose 0.25-1 mM
[6] = test system: MDA-MB-231; assay: Cytotoxicity against human MDA-MB-231 side population cells assessed as reduction in cell viability at 0.25 to 1 mM measured after 24 hrs by CCK-8 assay; assay type: functional, cell-based; conditions: dose 0.25-1 mM
[7] = test system: MCF7; assay: Cytotoxicity against human MCF7 side population cells assessed as reduction in cell viability at 0.25 to 1 mM measured after 24 hrs under hypoxia condition by CCK-8 assay; assay type: functional, cell-based; conditions: dose 0.25-1 mM
[8] = test system: MCF7; assay: Cytotoxicity against human MCF7 side population cells assessed as reduction in cell viability at 0.25 to 1 mM measured after 24 hrs by CCK-8 assay; assay type: functional, cell-based; conditions: dose 0.25-1 mM
[9] = test system: MDA-MB-231; assay: Cytotoxicity against human MDA-MB-231 side population cells assessed as reduction in cell viability at 2 to 4 mM measured after 24 hrs under hypoxia condition by CCK-8 assay; assay type: functional, cell-based; conditions: dose 2-4 mM
[10] = test system: MCF7; assay: Cytotoxicity against human MCF7 side population cells assessed as reduction in cell viability at 2 to 4 mM measured after 24 hrs under hypoxia condition by CCK-8 assay; assay type: functional, cell-based; conditions: dose 2-4 mM
[11] = test system: MDA-MB-231; assay: Cytotoxicity against human MDA-MB-231 side population cells assessed as reduction in cell viability at 2 to 4 mM measured after 24 hrs under normoxia condition by CCK-8 assay; assay type: functional, cell-based; conditions: dose 2-4 mM
[12] = test system: MCF7; assay: Cytotoxicity against human MCF7 side population cells assessed as reduction in cell viability at 2 to 4 mM measured after 24 hrs under normoxia condition by CCK-8 assay; assay type: functional, cell-based; conditions: dose 2-4 mM
[13] = test system: MDA-MB-231; assay: Decrease in hypoxia-induced cell invasion in human MDA-MB-231 side population cells at 0.25 to 1 mM measured after measured after 24 hrs by crystal violet staining based transwell assay; assay type: functional; conditions: dose 0.25-1 mM
[14] = test system: MCF7; assay: Decrease in hypoxia-induced cell invasion in human MCF7 side population cells at 0.25 to 1 mM measured after measured after 24 hrs by crystal violet staining based transwell assay; assay type: functional; conditions: dose 0.25-1 mM
[15] = test system: MDA-MB-231; assay: Inhibition of hypoxia-induced cell invasion in human MDA-MB-231 cells at 0.25 to 1 mM measured after measured after 24 hrs by crystal violet staining based transwell assay; assay type: functional; conditions: dose 0.25-1 mM
[16] = test system: MCF7; assay: Inhibition of hypoxia-induced cell invasion in human MCF7 cells at 0.25 to 1 mM measured after measured after 24 hrs by crystal violet staining based transwell assay; assay type: functional; conditions: dose 0.25-1 mM
[17] = test system: MDA-MB-231; assay: Suppression of hypoxia-induced upregulation of N-cadherin expression in human MDA-MB-231 side population cells at 0.25 to 1 mM by Western blot analysis; assay type: functional; conditions: dose 0.25-1 mM
[18] = test system: MDA-MB-231; assay: Suppression of hypoxia-induced upregulation of vimentin expression in human MDA-MB-231 side population cells at 0.25 to 1 mM by Western blot analysis; assay type: functional; conditions: dose 0.25-1 mM
[19] = test system: MDA-MB-231; assay: Suppression of hypoxia-induced upregulation of MMP2 expression in human MDA-MB-231 side population cells at 0.25 to 1 mM by Western blot analysis; assay type: functional; conditions: dose 0.25-1 mM
[20] = test system: MDA-MB-231; assay: Suppression of hypoxia-induced upregulation of MMP9 expression in human MDA-MB-231 side population cells at 0.25 to 1 mM by Western blot analysis; assay type: functional; conditions: dose 0.25-1 mM
[21] = test system: MDA-MB-231; assay: Reversal of hypoxia-induced downregulation of E-cadherin expression in human MDA-MB-231 side population cells at 0.25 to 1 mM by Western blot analysis; assay type: functional; conditions: dose 0.25-1 mM
[22] = test system: MDA-MB-231; assay: Suppression of hypoxia-induced upregulation of N-cadherin expression in human MDA-MB-231 cells at 0.25 to 1 mM by Western blot analysis; assay type: functional, cell-based; conditions: dose 0.25-1 mM
[23] = test system: MDA-MB-231; assay: Suppression of hypoxia-induced upregulation of vimentin expression in human MDA-MB-231 cells at 0.25 to 1 mM by Western blot analysis; assay type: functional, cell-based; conditions: dose 0.25-1 mM
[24] = test system: MDA-MB-231; assay: Suppression of hypoxia-induced upregulation of MMP2 expression in human MDA-MB-231 cells at 0.25 to 1 mM by Western blot analysis; assay type: functional, cell-based; conditions: dose 0.25-1 mM
[25] = test system: MDA-MB-231; assay: Suppression of hypoxia-induced upregulation of MMP9 expression in human MDA-MB-231 cells at 0.25 to 1 mM by Western blot analysis; assay type: functional, cell-based; conditions: dose 0.25-1 mM
[26] = test system: MDA-MB-231; assay: Reversal of hypoxia-induced downregulation of E-cadherin expression in human MDA-MB-231 cells at 0.25 to 1 mM by Western blot analysis; assay type: functional, cell-based; conditions: dose 0.25-1 mM
[27] = test system: MDA-MB-231; assay: Inhibition of hypoxia-induced activation of PI3K/Akt/mTOR signaling in human MDA-MB-231 side population cells assessed as decrease in phosphorylated PI3K level at 0.25 to 1 mM measured after 24 hrs by Western blot analysis; conditions: dose 0.25-1 mM
[28] = test system: MDA-MB-231; assay: Inhibition of hypoxia-induced activation of PI3K/Akt/mTOR signaling in human MDA-MB-231 side population cells assessed as decrease in phosphorylated Akt level at 0.25 to 1 mM measured after 24 hrs by Western blot analysis; conditions: dose 0.25-1 mM
[29] = test system: MDA-MB-231; assay: Inhibition of hypoxia-induced activation of PI3K/Akt/mTOR signaling in human MDA-MB-231 side population cells assessed as decrease in phosphorylated mTOR level at 0.25 to 1 mM measured after 24 hrs by Western blot analysis; conditions: dose 0.25-1 mM
[30] = test system: MDA-MB-231; assay: Inhibition of hypoxia-induced activation of PI3K/Akt/mTOR signaling in human MDA-MB-231 side population cells at 1 nM measured after 24 hrs in presence of IGF-1 by Western blot analysis
[31] = test system: MDA-MB-231; assay: Suppression of hypoxia-induced upregulation of MMP2 expression in human MDA-MB-231 cells at 1 nM measured after 24 hrs in presence of IGF-1 by Western blot analysis; assay type: functional, cell-based
[32] = test system: MDA-MB-231; assay: Suppression of hypoxia-induced upregulation of MMP9 expression in human MDA-MB-231 cells at 1 nM measured after 24 hrs in presence of IGF-1 by Western blot analysis; assay type: functional, cell-based

COC1=C[C@@H]2[C@@H]3Cc4ccc(OC)c(O)c4[C@]2(CCN3C)CC1=O
inactive: Activity [3] | Activity [4] | Activity [5] | Activity [6] | Activity [7] | Activity [8] | inhibition [30] | Activity [31] | Activity [32]
active: Activity [1] | Activity [2] | Activity [9] | Activity [10] | Activity [11] | Activity [12] | Activity [13] | Activity [14] | inhibition [15] | inhibition [16] | Activity [17] | Activity [18] | Activity [19] | Activity [20] | Activity [21] | Activity [22] | Activity [23] | Activity [24] | Activity [25] | Activity [26] | inhibition [27] | inhibition [28] | inhibition [29]
